Series [1] can be described thus: 1H relaxometry: r1p and r2p relaxivity of Mn(II) complexes. The series is classed as physicochemical. Particulars: free Mn(II) ion, 1.41 T. Here is the method: The relaxivity of Mn(II) complexes is one of the most important parameters that directly correlates with its MRI efficacy. Relaxivity is defined as the longitudinal (r1p) and transverse (r2p) water proton relaxation rate enhancement, provided by 1.0 mM concentration of the paramagnetic species. The relaxivity (r1p and r2p) of the Mn(II) complexes were determined using relaxometers operating at 0.49 T and 1.41 T field strength, in a HEPES buffer (I = 0.15 M NaCl) at different temperatures from the slopes of plots 1/T1,2 vs. (Mn(II)) for 4 concentrations of Mn(II) (data shown in Supporting Information Figures S24 and S25), and they are compared in Table 4.
The ^1H longitudinal (T1) and transverse (T2) relaxation times were measured by using Bruker Minispec MQ-20 and MQ-60 NMR analyzers (Bruker corporation, Billerica, MA, USA). The temperature of the sample holder was set at 25.0 or 37 (±0.2) °C, and controlled with a circulating water bath thermostat. The T1 values of the samples were determined by means of the inversion recovery method (180°–τ–90°), averaging 4–6 data points obtained at 12 different τ delay times, while T2 data were collected by using the Carl–Purcell–Meiboom–Gill (CPMG) spin-echo pulse sequence. Relaxivities were determined by published procedures (from the slopes of the plots of 1/T1,2 vs. (Mn(II)) for 4 concentrations of Mn(II)), in samples of 0.3–0.4 mL volume (data shown in Figures S24 and S25, Supplementary Information). The pH were set by either using a 0.05 M 4-(2-hydroxyethyl)-1-piperazine-ethanesulfonic acid (HEPES) buffer (pH = 7.4) or monitored (pH profiles) using a Metrohm 827 pH lab pH meter and a Metrohm 6.0234.100 combined electrode, in the pH range of 1.75–11.8.

The conditions of series [2]: cited from earlier work; for relaxivity upon binding to HSA: Mn(II) bound to HSA, 25 °C; for relaxivity of complexes with q = 0: typical values.
The nature of series [3]: 17O NMR and NMRD measurements (water exchange, rotation, hydration number). The series is classed as physicochemical. Particulars: ratio of kex^298 values. Here is the method:
The relaxivity of paramagnetic metal complexes is governed by several parameters, including the water exchange rate (kex), the rotational correlation time (τR), and the number of inner sphere water molecules (q). In order to obtain information for these parameters, temperature dependent ^17O NMR measurements (9.4 T) and nuclear magnetic relaxation dispersion (NMRD) experiments were carried out in the frequency range of 0.01–80 MHz, at 3 different temperatures (25, 37, and 50 °C). Since numerous physico-chemical parameters determine the relaxivity, the independent assessment of some of the parameters is essential for the correct characterization. The variable temperature ^17O NMR measurements can deliver information about kex and τR via the transverse (1/T2) and the longitudinal (1/T1) ^17O relaxation rates, respectively, while the ^17O chemical shifts (Δω) depend on q. Therefore, the transverse and longitudinal relaxation rates and chemical shifts for a [Mn(3,9-OPC2A)] complex and a diamagnetic reference sample (HClO4, pH = 3.3) have been determined in the aqueous solution.
The ^17O 1/T2r values and the NMRD data have been analyzed simultaneously by the Swift–Connick equations [31], as well as by the Solomon–Bloembergen–Morgan (SMB) and Freed models (see Supporting Information). In this calculation, the water exchange rate, kex^298; its activation enthalpy and entropy, ΔH^‡ and ΔS^‡; the rotational correlational time, τR; its activation energy, ER; the square of the zero-field splitting energy (ZFS), Δ^2; and the correlation time of its modulation, τv, have been determined and listed in Table 5, together with corresponding values of other complexes for comparison. As a result of the high number of parameters involved in the calculations, some have to be set to reasonable estimates based on literature data. Thus, the scalar coupling constant, A/ħO, is set to 33 × 10^6 rad s^−1, the distance between the metal ion, and the inner and outer sphere water protons are fixed to rMnH = 2.83 Å and aMnH = 3.6 Å, respectively; the diffusion coefficient and its activation energy are fixed to DMnH = 23 × 10^−10 m^2s^−1 and EMnH = 18 kJmol^−1, and the activation energy of the modulation of the zero-field-splitting, Ev to 1.0 kJmol^−1.
The hydration number has been fixed to q = 1, based on the relaxivity value measured at 20 MHz (r1 = 3.09 mM^−1s^−1), and on the value, 0.97 ± 0.2, determined for q using the method proposed by Gale et al..
A Bruker Avance 400 (9.4 T) spectrometer was used to measure the longitudinal (1/T1) and transverse (1/T2) relaxation rates, and the chemical shifts of an aqueous solution of the [Mn(3,9-OPC2A)] complex (pH = 7.4, 1.3 mM) and a diamagnetic reference (HClO4 acidified water, pH = 3.3) in the temperature range of 273–348 K. The temperature calibration was performed using literature protocols relying on ethylene glycol and methanol standards. The 1/T1 and 1/T2 values were determined by the inversion−recovery and the Carr−Purcell−Meiboom−Gill spin echo technique, respectively. To avoid susceptibility corrections of the chemical shifts, a glass sphere fitted into a 10 mm NMR tube was used to contain the samples. ^17O enriched water (10% H2^17O, CortecNet) was added to the solutions to improve sensitivity (circa 1% enrichment). Proton NMRD profiles of the [Mn(3,9-OPC2A)] complex (1.00 mM, pH = 7.4) were recorded in aqueous solution on a Stelar SMARTracer Fast Field Cycling relaxometer (0.01−10 MHz), and a Bruker WP80 NMR electromagnet adapted to variable field measurements (20−80 MHz) and controlled by a SMARTracer PC-NMR console (Stelar s.r.l., Mede, Italy). The temperature was monitored by a VTC91 temperature control unit and maintained by a gas flow. The temperature was determined by previous calibration with a Pt resistance temperature probe. […]

The conditions of series [4]: cited from earlier work; for k2: ref 16 ([Mn(3,6-PC2A)]), 12 ([Mn(1,4-DO2A)]), 20 ([Mn(1,7-O2DO2A)]); for t1/2 (h) at pH = 7.4: extrapolated to pH = 7.4; for t1/2 (h) at pH = 7.4 / k1: ref 16 (PC2A complexes), 12, 13, 20; for k1: proton assisted dissociation.
For series [5] the following is noted: cited from earlier work; for r1^298_20 MHz: 20 MHz, 298 K; for ΔH^‡: activation enthalpy of water exchange; for τv^298: correlation time of ZFS modulation; for q: hydration number; for τR^298: rotational correlation time; for Δ^2: square of the zero-field splitting energy; for kex^298: water exchange rate.
Setting [6] is: fixed during the fitting procedure.

These results are taken from paper PMC8778187, “A New Oxygen Containing Pyclen-Type Ligand as a Manganese(II) Binder for MRI and ^52Mn PET Applications: Equilibrium, Kinetic, Relaxometric, Structural and Radiochemical Studies” (Molecules, 2022).

Read-outs that look alike come from different tables or passages of the source.

As to `[Mn+2]` [Mn(II) ion], the r2p relaxivity is 64.3 mM⁻¹ s⁻¹ in series [1] (25 °C) and 54.2 mM⁻¹ s⁻¹ in series [1] (37 °C). Also, the figures for the “relaxivity upon binding to HSA” value in series [2] (0.47 T) and in series [2] (1.41 T) were 97.2 mM⁻¹ s⁻¹ and 76.35 mM⁻¹ s⁻¹, respectively. Besides, the “relaxivity in pure aqueous solution” value in series [2] (Mn(II) ion) is 7.92 mM⁻¹ s⁻¹.
Take `O=C([O-])CN1CCNCCNCCN(CC(=O)[O-])CC1.[Mn+2]` [[Mn(1,4-DO2A)]]: the “water exchange faster than on [Mn(3,9-OPC2A)]” value in series [3] worked out at 20 times. In series [4] (T = 25 °C, I = 0.15 M NaCl), the k2 is listed as 1.4 × 10^6 M^−2s^−1 and the k1 was 99 M⁻¹ s⁻¹. Besides, the “t1/2 (h) at pH = 7.4” value in series [4] was 48 h. For the same molecule, in series [5], the “r1^298_20 MHz” value is 2.1 mM⁻¹ s⁻¹, the “ΔH^‡” value is 29.4 kJmol^−1, the “τv^298” value is listed as 4.4 ps and the “τR^298” value is reported as 46 ps. In addition, in series [5], the “Δ^2” value is given as 481 10^18s^−2 and the “kex^298” value is given as 113 10^7s^−1. In series [5] (activation energy of rotation), the ER is given as 19.1 kJmol^−1. For the same molecule, the q in series [5] (setting [6]) is 0.87.
Take `CN(C)C(=O)CN1CCNCCNCCN(CC(=O)N(C)C)CC1.O.[Mn+2]` [[Mn(1,4-DO2AM^Me2)]^2+]: in series [4], the “t1/2 (h) at pH = 7.4” value is 556 h. The k1 in series [4] (T = 25 °C, I = 0.15 M NaCl) was 8.7 M⁻¹ s⁻¹. In series [5], the “r1^298_20 MHz” value was 2.5 mM⁻¹ s⁻¹, the “ΔH^‡” value was 36.9 kJmol^−1, the “τv^298” value is 5.5 ps and the “τR^298” value is 53 ps. In addition, in series [5], the “Δ^2” value is on record as 510 10^18s^−2 and the “kex^298” value is recorded as 11.5 10^7s^−1. The ER in series [5] (activation energy of rotation) is recorded as 19.1 kJmol^−1. For the same molecule, the q in series [5] (setting [6]) was 0.87.
For the molecule `O.O=C([O-])CN1CCOCCN(CC(=O)[O-])CCOCC1.[Mn+2]` [[Mn(1,7-O2DO2A)]], in series [4] (T = 25 °C, I = 0.15 M NaCl), the k2 was 3.0 × 10^6 M^−2s^−1 and the k1 was 85 M⁻¹ s⁻¹. Besides, the “t1/2 (h) at pH = 7.4” value in series [4] is 56.8 h. In addition, in series [5], the “r1^298_20 MHz” value is 2.86 mM⁻¹ s⁻¹, the “ΔH^‡” value is listed as 29.7 kJmol^−1, the “τR^298” value was 46.7 ps and the “Δ^2” value is 111 10^18s^−2. Further, the “kex^298” value in series [5] is on record as 5.3 10^7s^−1. Further, the “ΔS^‡” value in series [5] (activation entropy of water exchange) was 2.8 JK^−1mol^−1. In series [5] (setting [6]), the ER was 20 ^e kJmol^−1 and the q is listed as 1.
Take `O.O=C([O-])CN1CCNCc2cccc(n2)CN(CC(=O)[O-])CC1.[Mn+2]` [[Mn(3,6-PC2A)]]: in series [4] (T = 25 °C, I = 0.15 M NaCl), the k2 is reported as 1.5 × 10^5 M^−2s^−1 and the k1 was 70 M⁻¹ s⁻¹. Further, in series [4], the “t1/2 (h) at pH = 7.4” value was 63.2 h. The k3 in series [4] (metal assisted dissociation, T = 25 °C, I = 0.15 M NaCl) was 0.026 M⁻¹ s⁻¹. In addition, the “KMnL x H” value in series [4] (protonation constant of the complex from kinetic fit, T = 25 °C, I = 0.15 M NaCl) was 1.15 × 10^3. For the same molecule, in series [4] (stability constant of dinuclear intermediate, T = 25 °C, I = 0.15 M NaCl, unit assumed), the KML x Cu is 16 M⁻¹.
As to `O=C([O-])CN1CCNCCN(CC(=O)[O-])CCN(CC(=O)[O-])CC1.[Mn+2]` [[Mn(DO3A)]^−], the “relaxivity of complexes with q = 0” value in series [2] is 1.4 to 1.6 mM⁻¹ s⁻¹.
Take `O=C([O-])CN1CCN(CC(=O)[O-])Cc2cccc(n2)CN(CC(=O)[O-])CC1.[Mn+2]` [[Mn(PCTA)]^−]: the “relaxivity of complexes with q = 0” value in series [2] was 1.4 to 1.6 mM⁻¹ s⁻¹.
